Measurements: publication PMC6204753, “Non-native autoinducer analogs capable of modulating the SdiA quorum sensing receptor in Salmonella enterica serovar Typhimurium” (Beilstein Journal of Organic Chemistry, 2018)
Values joined by “and” are separate entries in the source; they are usually repeats but may differ in a detail not shown here. Equal entries are not always repeated. Where two headings read alike, the source gives them in different places.

Legend:
SdiA [1] = target: T1, SdiA (Salmonella enterica subsp. enterica serovar Typhimurium, UniProt O66040); parameters: method as in PMID 17085703; conditions: racemates; cited from earlier work
SdiA [2] = target: T1, SdiA; experiment: S. Typhimurium-pJNS25 SdiA reporter, competitive antagonism against 10 nM L-OOHL; assay type: cell-based; conditions: for inhibition at 1 µM: read-out: Antagonism 1 μM Inhibition (%); for inhibition at 100 µM: 100 μM compound, read-out: Antagonism 100 μM Inhibition (%); for Emax: maximal inhibition, 100% minus lowest % activity in presence of 10 nM L-OOHL (2), read-out: inhibition (%)
Method in brief: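 S. Typhimurium-pJNS25 (native SdiA, srgE promoter–luxCDABE) subcultured 1:100 in LB and incubated 6 h at 37 °C, 200 rpm, with compound (1% DMSO); antagonism run against 10 nM L-OOHL. Luminescence normalised between 10 μM OOHL and 1% DMSO controls; triplicates; four-parameter dose–response fits.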

SdiA [3] = target: T1, SdiA; experiment: S. Typhimurium-pJNS25 SdiA reporter, agonism (luminescence); assay type: cell-based; conditions: for Emax: read-out: activation (%)
Source text: Biological assays for SdiA activity. Cell-based reporter strains that rely on detecting the transcriptional activity of LuxR-type receptors are commonly used to assess the activity of exogenous ligands. We used the S. Typhimurium-pJNS25 reporter strain constructed by Smith and Ahmer and also used by Janssens et al. to examine SdiA activity. This strain naturally produces SdiA and contains a reporter plasmid with the promoter region for srgE fused to the luxABCDE operon of V. fischeri (see Experimental section for details of all strains and plasmids). SdiA activity is thus reported by the production of luciferase and resulting bioluminescence. We also prepared an SdiA reporter in E. coli (JLD271-pJN105SE-pSC11SE) to examine S. Typhimurium SdiA activity in an alternate background and with a different reporter gene output. […] This reporter construct uses an arabinose inducible promoter to produce S. Typhimurium SdiA and the promoter region for srgE fused to lacZ to report SdiA activity. SdiA activity is then measured using standard β-galactosidase assays. In both reporter strains, signal was normalized to the difference between the positive control (10 μM OOHL) and the negative control (1% DMSO; no compound).
Salmonella SdiA reporter assay. S. Typhimurium-pJNS25 was grown 16–18 h overnight in LB, diluted 1:100 in fresh LB medium, and then incubated for 6 h at 37 °C with shaking at 200 rpm in the presence of compounds (1% DMSO). […] All compounds were screened at 100 μM and 1 μM in triplicate in agonism and antagonism assays. […] Dose–response analyses were performed by preparing dilutions of compounds in DMSO and testing each concentration in the agonism or antagonism assays. Competition dose–response assays (data in Figure 5) were performed in the same manner as the antagonism assays, except instead of OOHL being added to the subculture, the antagonist being tested was added. Non-linear regression curve fits were generated using GraphPad Prism software (version 6) using variable slope (four parameter) dose–response analysis.

S. Typhimurium SdiA [4] = target: T2, S. Typhimurium SdiA (Salmonella enterica subsp. enterica serovar Typhimurium, UniProt O66040); experiment: E. coli JLD271-pJN105SE-pSC11SE SdiA reporter, antagonism (β-galactosidase); assay type: cell-based; conditions: for inhibition (%): E. coli reporter, against OOHL at its EC50 (1.5 nM), NA = not active
Source text: (§1) Biological assays for SdiA activity. Cell-based reporter strains that rely on detecting the transcriptional activity of LuxR-type receptors are commonly used to assess the activity of exogenous ligands. We used the S. Typhimurium-pJNS25 reporter strain constructed by Smith and Ahmer and also used by Janssens et al. to examine SdiA activity. This strain naturally produces SdiA and contains a reporter plasmid with the promoter region for srgE fused to the luxABCDE operon of V. fischeri (see Experimental section for details of all strains and plasmids). SdiA activity is thus reported by the production of luciferase and resulting bioluminescence. We also prepared an SdiA reporter in E. coli (JLD271-pJN105SE-pSC11SE) to examine S. Typhimurium SdiA activity in an alternate background and with a different reporter gene output. E. coli JLD271 is the sdiA mutant of K-12 E. coli. This reporter construct uses an arabinose inducible promoter to produce S. Typhimurium SdiA and the promoter region for srgE fused to lacZ to report SdiA activity. SdiA activity is then measured using standard β-galactosidase assays. In both reporter strains, signal was normalized to the difference between the positive control (10 μM OOHL) and the negative control (1% DMSO; no compound).
E. coli SdiA reporter assay. The β-galactosidase assay using the E. coli SdiA reporter was performed as reported previously, with minor modifications. The reporter strain was grown 16–18 h overnight in LB, diluted 1:10 in fresh LB medium, and incubated at 37 °C with shaking at 200 rpm until it reached an OD600 of 0.25. Expression of SdiA was induced by the addition of 4 mg/mL arabinose, and the culture was incubated in the presence of compounds (1% DMSO) for 4 h at 37 °C with shaking at 200 rpm. […] A 50 μL aliquot of culture from each well was lysed in 200 μL of Z-buffer and 8 μL of chloroform, and a 100 μL aliquot of this lysate was incubated with 25 μL of 4 mg/mL ONPG for 20 min at 30 °C before reading absorption at 420 nm and 550 nm using a Biotek Synergy 2 plate reader. Non-linear regression curve fits were generated using GraphPad Prism software (version 6) using variable slope (four parameter) dose–response analysis.

SdiA [5] = target: T1, SdiA; experiment: Competition dose–response of OOHL (2) against antagonists in the S. Typhimurium SdiA reporter; assay type: cell-based; conditions: for inhibition profile in competition assay (in words): against OOHL (2)
Procedure: We also submitted compounds 11, R8, and F45 to competition-type assays in the S. Typhimurium SdiA reporter to further characterize their activity profiles. […] The results are shown in Figure 5 (EC50 and maximal activity values listed in Supporting Information File 3).
(§2) Salmonella SdiA reporter assay. S. Typhimurium-pJNS25 was grown 16–18 h overnight in LB, diluted 1:100 in fresh LB medium, and then incubated for 6 h at 37 °C with shaking at 200 rpm in the presence of compounds (1% DMSO). For antagonism assays, OOHL (2) at its EC90 (10 nM, 0.1% DMSO) was added to the subculture immediately prior to adding the compound for testing. All compounds were screened at 100 μM and 1 μM in triplicate in agonism and antagonism assays. Raw luminescence values were divided by the OD600 and then normalized to the controls; negative (DMSO) and positive (10 μM OOHL) control samples were included in every assay plate and used to normalize assay results, setting the positive control to 100% and the negative control to 0%. Luminescence was measured using a Biotek Synergy 2 plate reader and Gen 5 software (version 1.05). Dose–response analyses were performed by preparing dilutions of compounds in DMSO and testing each concentration in the agonism or antagonism assays. Competition dose–response assays (data in Figure 5) were performed in the same manner as the antagonism assays, except instead of OOHL being added to the subculture, the antagonist being tested was added. Non-linear regression curve fits were generated using GraphPad Prism software (version 6) using variable slope (four parameter) dose–response analysis.

S. Typhimurium SdiA [6] = target: T2, S. Typhimurium SdiA; experiment: E. coli JLD271-pJN105SE-pSC11SE SdiA reporter, agonism; assay type: cell-based
Source text: as §1, with “This reporter construct uses an arabinose inducible promoter to produce S. Typhimurium SdiA and the promoter region for srgE fused to lacZ to report SdiA activity.” left out, “In both reporter strains, signal was normalized to the difference between the positive control (10 μM OOHL) and the negative control (1% DMSO; no compound).” left out
E. coli SdiA reporter assay. […] A 50 μL aliquot of culture from each well was lysed in 200 μL of Z-buffer and 8 μL of chloroform, and a 100 μL aliquot of this lysate was incubated with 25 μL of 4 mg/mL ONPG for 20 min at 30 °C before reading absorption at 420 nm and 550 nm using a Biotek Synergy 2 plate reader. […]

S. Typhimurium-pJNS25 = assay type: cell-based; conditions: 100 μM compound; footnote f: Cell growth inhibited at this compound concentration
Procedure: as §2

[7] = 1 μM compound, average ± STD, change in activity from 10 nM 2 (OOHL)
[8] = average ± STD, change in activity from 10 nM 2 (OOHL)
[9] = maximal activation of the antagonists (partial agonism), Table 3

T2 sequence (O66040 entry or part of it): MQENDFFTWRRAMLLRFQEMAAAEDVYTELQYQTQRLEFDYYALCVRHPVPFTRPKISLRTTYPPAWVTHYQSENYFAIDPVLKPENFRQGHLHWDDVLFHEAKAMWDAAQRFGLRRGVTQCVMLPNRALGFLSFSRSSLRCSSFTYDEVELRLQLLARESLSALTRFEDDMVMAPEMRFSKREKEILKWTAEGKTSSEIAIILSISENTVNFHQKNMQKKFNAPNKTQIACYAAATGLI
T1 sequence (O66040 entry or part of it): as above

Compound | EC50 (SdiA [1]) | inhibition at 1 µM (SdiA [2]; [7]) | inhibition at 100 µM (SdiA [2]; [8]) | IC50 (SdiA [2]; against 10 nM L-OOHL (EC90)) | Emax (SdiA [3]; [9]) | inhibition (%) (S. Typhimurium SdiA [4]) | inhibition profile in competition assay (in words) (SdiA [5]) | EC50 (SdiA [5]; antagonist at 0.1 μM) | EC50 (SdiA [5]; antagonist at 1 μM) | EC50 (SdiA [5]; antagonist at 10 μM) | also measured
CCCCCC(=O)CC(=O)NC1CCSC1=O (racemic) [DL-3-oxo-C8 thiolactone] | 1 nM | – | – | – | – | – | – | – | – | – | –
CCCCCCCCCC(=O)NC1CCOC1=O (racemic) [DL-DHL (C10)] | 1000 nM | – | – | – | – | – | – | – | – | – | –
CCCC(=O)CC(=O)NC1CCOC1=O (racemic) [DL-OHHL (3-oxo-C6)] | 5 nM | – | – | – | – | – | – | – | – | – | –
CCCCCCCC(=O)NC1CCOC1=O (racemic) [DL-OHL (C8)] | 7 nM | – | – | – | – | – | – | – | – | – | –
CCCCCC(=O)CC(=O)NC1CCOC1=O (racemic) [DL-OOHL, N-(3-oxooctanoyl) DL-homoserine lactone] | 3 nM | – | – | – | – | – | – | – | – | – | –
CCOC(=O)CNC(=O)Cc1cccc(I)c1 [F45] | – | 8 ± 10% | 92 ± 2% | 28500 nM | 26% | failed to display antagonistic activity | non-competitive inhibition profile | 1.77 nM | 1.33 nM | 4.11 nM | Emax (SdiA [2]): 87%
CCCCCCCCCCCOc1ccc(C(=O)N[C@H]2CCOC2=O)cc1 [R8] | – | 18 ± 5% | 67 ± 5% | 44000 nM and 44200 nM | 24% | fully inhibit SdiA activity | competitive SdiA inhibition | 1.57 nM | 1.51 nM | 2.52 nM | Emax (SdiA [2]): > 100%; inhibition at 0.0015 µM (S. Typhimurium SdiA [4]): 106%; EC50 (SdiA [5]; antagonist at 100 μM): 10.6 nM
CCCCCC(=O)CC(=O)N[C@H]1CCOC1=O [compound 2, reference compound] | – | -2 ± 9% | 9 ± 5% | – | – | – | – | – | – | – | EC50 (S. Typhimurium SdiA [6]): 1.5 nM; EC90 (SdiA [3]; S. Typhimurium reporter): 10 nM; EC50 (SdiA [3]; agonism dose–response, read-out: EC50): 1.03 nM; Emax (SdiA [3]; maximal activity (efficacy) from agonism dose–response, 10 μM OOHL = 100%, DMSO = 0%): 110%; EC50 (SdiA [5]; no antagonist (0)): 1.03 nM
O=C(CCCCCCCCCN=C=S)CC(=O)N[C@H]1CCOC1=O [compound 11, reference compound] | – | 64 ± 6% | 128 ± 1% | 320 nM | -33% | fully inhibit SdiA activity | both competitive and non-competitive inhibition | 72.3 nM | 220 nM | 1310 nM | IC50 (SdiA [2]; against 10 nM L-OOHL): 318 nM; IC50 (S. Typhimurium SdiA [4]): 380 nM; inhibition at 0.0015 µM (S. Typhimurium SdiA [4]): 130%; EC50 (SdiA [5]; antagonist at 100 μM): 4670 nM
O=C1C=C(Br)C(=CBr)O1 [compound 21, reference compound] | – | – | – | – | – | – | – | – | – | – | Antagonism 1 μM Inhibition (%) (SdiA [2]; [7]): 29 ± 13%; cell growth (S. Typhimurium-pJNS25): --f
